Earlier results as cited in patent US20090048316A1, “Pharmaceutical composition comprising candesartan cilexetil” (priority 2007, published 2009).
Like-named read-outs stand apart in the source and are kept apart here.

solubility (in methanol): practically insoluble | solubility (in water): practically insoluble
SMILES: CCOc1nc2cccc(C(=O)OC(C)OC(=O)OC3CCCCC3)c2n1Cc1ccc(-c2ccccc2-c2nnn[nH]2)cc1 (racemic) [Candesartan cilexetil, (±)-1-[[(cyclohexyloxy)carbonyl]oxy]ethyl-2-ethoxy-1-[[2′-(1H-tetrazol-5-yl)[1,1′biphenyl]-4-yl]methyl]-1H-benzimidazole-7-carboxylate]
